Entries after “also recorded” stand apart in the source; their conditions may differ.
Legend:
[1] = test system: affinity-purified Ins(1,4,5)P3-specific antibodies; test: Inhibition of binding of affinity-purified antibodies to immobilized Ins(1,4,5)P3 by ions; set-up: species or system New Zealand White rabbit; conditions: for IC50: affinity-purified antibodies, preincubation 30 minutes, room temperature, read-out: IC50 for inhibition of antibody binding to immobilized Ins(1,4,5)P3; for inhibition of / interference with antibody binding to immobilized Ins(1,4,5)P3: concentration not stated with the result, or 'high concentrations'; for inhibition of antibody recognition by cations: concentrations up to 100 mM; for interference with antibody binding to immobilized Ins(1,4,5)P3: up to 0.3 mM
Experimental: (§1) The presence of anti-Ins(1,4,5)P3 antibodies in rabbit serum was detected by an ELISA. Ins(1,4,5)P3 (hapten) was covalently attached to microtiter plates through a C-6 linker by adding 6-O-(ω-Aminohexyl)-D-myo-inositol 1,4,5-triphosphate (1) (1.25 μg in 0.1 ml of phosphate buffered saline (PBS) per well) to maleic anhydride-activated polystyrene plates (Pierce). This anhydride-activated plate allows direct coupling of amine-bearing molecules to the well surface, (Pierce Chemical Co. Instruction 15110X (1992) REACTI-BIND™ Maleic Anhydride Activated Polystyrene Plates), and obviates the need for a carrier protein to immobilize haptens. The plate was incubated at room temperature overnight, and each well was blocked by adding 0.12 ml of SUPERBLOCK ™ blocking solution in PBS (Pierce). After 10 minutes at room temperature, the plate was washed twice with 0.05% Tween-20 in 10 mM Tris/HCl containing 0.85% NaCl, pH 7.2 (TBS), followed by TBS buffer twice. Rabbit antiserum (antibodies) diluted in TBS buffer containing 0.1% gelatin was added (95 μl per well). The plate was incubated at 37° C. for 2 hours, and washed as stated above. Specific antibody binding was assessed by adding goat anti-rabbit IgG-HRP conjugate (1/200 dilution in TBS containing 0.1% gelatin; 90 μl per well), and the plate was incubated for another 2 hours at 37° C. After the plate was washed again, the peroxidase substrate solution (90 μl per well) containing 2 mM 2,2'-azinobis(3-ethyl-benzthiazoline-6-sulfonic acid), 2.5 mM hydrogen peroxide, and 50 mM citrate buffer, with a final pH of 5.0, was added. The reaction was incubated at room temperature for 15-20 minutes, and terminated by adding 20 μl of 5% SDS to each well. The absorbance at 415 nm was measured by a microtiter plate reader. Rabbit serum taken before immunization was used as a control in all the assays, from which the absorbance values obtained served as a blank for the correction of experimental data.
Referring to FIG. 3, the affinity-purified antibodies were preincubated with individual multivalent ions at indicated concentrations for 30 minutes at room temperature before added to the (1,4,5)IP3 immobilized EIA plates. […] The assay for the binding inhibition was the same as that described for the ELISA in the Experimental Procedures. Percentage maximal antibody binding is expressed by B/Bo, where B=absorbance with inhibitor and Bo =absorbance without inhibitor. Each data point represents the means of three determinations.

[2] = test system: IP3 -C6 -NC5 -BSA induced antibodies (anti-Ins(1,4,5)P3 antiserum); test: Competitive ELISA: immobilized Ins(1,4,5)P3 vs competitor, IP3-C6NC5-BSA induced antiserum; type: binding, New Zealand White rabbit; conditions: for IC50: IP3-C6-NC5-BSA induced antibodies, competitive ELISA, read-out: [Competitor] (M) at half maximal absorbance (B/Bo = 0.5) or IC50
Experimental: (§2) New Zealand White female rabbits were immunized with 1 mg of the IP3 -BSA conjugate in 0.5 ml of saline emulsified with an equal volume of Freund's complete adjuvant by five to six subcutaneous injections at the back and both flanks. Booster injections were given with the same amounts of the IP3 -BSA prepared with incomplete Freund's adjuvant at monthly intervals. After the second boost, the animals were bled from the ear vein 2 weeks after each booster injection. The antisera thus prepared were stored at -20° C. until used.
as §1
(§3) The avidity and specificity of these antisera were examined by competitive ELISA experiments between immobilized Ins(1,4,5)P3 and various inositol phosphates.
(§4) Table 1 Avidity of antisera toward various inositol phosphates and
(§5) PIP2. The avidity is expressed as the concentrations at halfmaximal
(§6) absorbance (B/Bo = 0.5) in the competitive ELISA experiments.

[3] = test system: IP3 -C5 -BSA induced antibodies (anti-Ins(1,4,5)P3 antiserum); test: Competitive ELISA: immobilized Ins(1,4,5)P3 vs competitor, IP3-C5-BSA induced antiserum; type: binding, New Zealand White rabbit; conditions: for IC50: competitive ELISA, read-out: [Competitor] (M) at half maximal absorbance (B/Bo = 0.5) or IC50
Experimental: as §2, §1, §3, §4, §5, §6

[4] = test system: affinity-purified Ins(1,4,5)P3-specific antibodies (from IP3 -C5 -BSA induced antiserum); test: Competitive ELISA with affinity-purified Ins(1,4,5)P3-specific antibodies and inositol phosphates; type: binding, New Zealand White rabbit
Experimental: as §1
The antiserum (5.2 ml) was applied to an ECONO-PAC ™ protein A cartridge (5 ml, Bio-Rad) equilibrated with 100 mM Tris/HCl, pH 8.0. The column was washed with, in sequence, 20 ml of the equilibrating buffer, and 25 ml of 10 mM Tris/HCl, pH 8.0. The bound IgG was eluted with 25 ml of 100 mM glycine buffer, pH 3.0, at a flow rate of 0.5 ml/min. Fractions of 1.7 ml were collected in tubes containing 100 μl of 1M Tris/HCl, pH 8.0.
The dialyzed solution from step 1 was applied to a Ins(1,4,5)IP3 -agarose column (5.8 ml bed volume) equilibrated with 10 mM Tris/HCl, pH 7.5. The column was washed with the equilibration buffer followed by 500 mM NaCl in the same buffer. The absorbed proteins were eluted with, in sequence, 50 ml of 100 mM glycine buffer, pH 3.5, 10 ml of 10 mM Tris/HCl, pH 8.8, and 50 ml of 100 mM NaHCO3 /Na2 CO3 buffer, pH 10.5 Fractions of 1.7 ml were collected. For the eluate with the glycine buffer and with the NaHCO3 /Na2 /CO3 buffer, fractions were collected in tubes containing 100 μl of 1M Tris/HCl, pH 8.0, and 700 μl of 1M Tris/HCl, pH 7.6, respectively.
Referring to FIG. 2, the displacement curves were generated from competitive ELISA experiments between immobilized (1,4,5)IP3 and various inositol phosphates shown in the insert. The antibodies were preincubated with individual competitors at various concentrations for 30 minutes at room temperature before added to the (1,4,5)IP3 immobilized EIA plates. The assay for the competitive binding was the same as that described for the ELISA under "Experimental Procedures". Percentage total specific binding is expressed by B/Bo, where B=absorbance with competitor and Bo =absorbance without competitor. Each data point represents the means of three determinations. For clarity, the standard deviations were not shown.

Ins(1,4,5)P3 receptors = conditions: Wilcox et al. 1993, cited from earlier work; for IC50: read-out: IC50 for displacing [3H]Ins(1,4,5)P3 binding from Ins(1,4,5)P3 receptors

Row | Molecule | IC50 [2] | IC50 ([3]; IP3-C5-BSA induced antibodies) | inhibition of / interference with antibody binding to immobilized Ins(1,4,5)P3 [1] | lower affinity relative to Ins(1,4,5)P3 ([2]; both antiserum preparations) | also measured
1 | N.N.O=S(=O)(O)O [(NH4)2 SO4] |  |  |  |  | binding capability of antibodies after (NH4)2SO4 precipitation ([1]; even after extensive dialysis): complete loss of binding capability
2 | Nc1ncnc2c1ncn2[C@@H]1O[C@H](COP(=O)(O)OP(=O)(O)OP(=O)(O)O)[C@@H](O)[C@H]1O [ATP^4 -] |  |  | could be disrupted |  | IC50 [1]: 210 µM
3 | Cl [C1-] |  |  | no appreciable interference |  | 
4 | O=P(O)(O)O [HPO4^2 -] |  |  | could be disrupted |  | IC50 [1]: 2610 µM
5 | O=P(O)(O)O[C@H]1[C@H](OP(=O)(O)O)[C@@H](OP(=O)(O)O)[C@H](OP(=O)(O)O)[C@@H](OP(=O)(O)O)[C@H]1OP(=O)(O)O [IP6, Phytic acid] | 0.00015 M | 0.0008 M |  | two to four orders of magnitude | 
6 | O=P(O)(O)OC1[C@H](O)[C@H](O)C(O)[C@H](O)[C@H]1O (stereo partly shown) [Ins(1)P1] | 0.00042 M |  |  | two to four orders of magnitude | 
7 | O=P(O)(O)O[C@H]1[C@H](OP(=O)(O)O)[C@@H](OP(=O)(O)O)[C@H](O)[C@@H](O)[C@H]1OP(=O)(O)O [Ins(1,2,5,6)P4] | 2.1e-05 M | 7.1e-05 M |  | two to four orders of magnitude | 
8 | O=P(O)(O)OC1C(O)C(OP(=O)(O)O)C(OP(=O)(O)O)C(OP(=O)(O)O)C1OP(=O)(O)O (stereo not shown) [Ins(1,3,4,5,6)P5] |  |  |  |  | IC50 [4]: 45 µM; IC50 relative to that of Ins(1,4,5)P3 [4]: three orders or magnitude higher
9 | O=P(O)(O)O[C@H]1[C@H](OP(=O)(O)O)[C@H](O)[C@H](O)[C@@H](O)[C@@H]1OP(=O)(O)O [Ins(1,5,6)P3] |  |  |  | two to four orders of magnitude | order of affinity toward various inositol phosphates ([2]; IP3-C6NC5-BSA induced antiserum): Ins(3,4,5,6)P4 >Ins(1,5,6)P3, PIP2, Ins(1,2,5,6)P4 >Ins(4,5)P2
10 | [K+] [K+] |  |  | did not affect the binding |  | inhibition of antibody recognition by cations [1]: did not cause significant inhibition
11 | [N-]=[N+]=[N-] [N3 -] |  |  | no appreciable interference |  | 
12 | N [NH4 +] |  |  |  |  | inhibition of antibody recognition by cations [1]: did not cause significant inhibition
13 | [Na+] [Na+] |  |  | no inhibiting effect; also recorded: did not affect the binding |  | inhibition of antibody recognition by cations [1]: did not cause significant inhibition
14 | O=S(=O)(O)O [SO4^2 -] |  |  | could be disrupted |  | IC50 [1]: 11600 µM
15 | NC(CO)(CO)CO [Tris] |  |  |  |  | inhibition of antibody recognition by cations [1]: did not cause significant inhibition
16 | heparin |  |  |  |  | interference with antibody binding to immobilized Ins(1,4,5)P3 [1]: not affected; interference with antibody binding to immobilized Ins(1,4,5)P3 ([1]; listed as haparin): no appreciable interference

Further lines, with some results ahead:

Row | IC50 [2] | IC50 ([3]; IP3-C5-BSA induced antibodies) | Molecule | inhibition of / interference with antibody binding to immobilized Ins(1,4,5)P3 [1] | lower affinity relative to Ins(1,4,5)P3 ([2]; both antiserum preparations) | also measured
17 | 1.7e-06 M | 1e-05 M | O=P(O)(O)O[C@H]1[C@H](O)[C@@H](O)[C@H](OP(=O)(O)O)[C@@H](OP(=O)(O)O)[C@H]1O [Ins(1,3,4)P3] |  | two to four orders of magnitude | IC50 [4]: 39 µM; IC50 relative to that of Ins(1,4,5)P3 [4]: three orders or magnitude higher; decrease in affinity compared with IP3-C6NC5-BSA induced antiserum ([3]; IP3-C5-BSA induced antibodies): 10 fold
18 | 2e-07 M | 7.1e-08 M | O=P(O)(O)O[C@H]1[C@H](O)[C@@H](OP(=O)(O)O)[C@H](OP(=O)(O)O)[C@@H](OP(=O)(O)O)[C@H]1O [Ins(1,3,4,5)P4] |  |  | IC50 [4]: 0.73 µM; differential affinity, ratio of IC50 values Ins(1,3,4,5)P4 / Ins(1,4,5)P3 [4]: 60 fold; ratio of IC50[Ins(1,3,4,5)P4] to IC50[Ins(1,4,5)P3] ([2]; antiserum against IP3-C6NC5-BSA): 2.2; affinity relative to Ins(1,4,5)P3 ([2]; both antiserum preparations): one-third of the affinity; weaker than Ins(1,4,5)P3 at displacing specific [3H]Ins(1,4,5)P3 binding (Ins(1,4,5)P3 receptors): about 40 fold; IC50 (Ins(1,4,5)P3 receptors): 0.762 µM; binding compared with IP3-C6NC5-BSA induced antiserum ([3]; IP3-C5-BSA induced antibodies): stronger binding; ratio of IC50[Ins(1,3,4,5)P4] to IC50[Ins(1,4,5)P3] ([3]; antiserum against IP3-C5-BSA): 2.3; differential affinity, ratio of IC50 values before purification ([3]; antiserum before affinity purification): 2 fold
19 | 8.9e-08 M | 3.1e-08 M | O=P(O)(O)O[C@@H]1[C@H](O)[C@H](O)[C@@H](OP(=O)(O)O)[C@H](OP(=O)(O)O)[C@H]1O [Ins(1,4,5)P3, D-myo-inositol 1,4,5-trisphosphate] |  |  | IC50 [4]: 0.012 µM; IC50 (Ins(1,4,5)P3 receptors): 0.0207 µM; binding compared with IP3-C6NC5-BSA induced antiserum ([3]; IP3-C5-BSA induced antibodies): stronger binding
20 | 4.5e-06 M | 6.3e-06 M | O=P(O)(O)O[C@H]1[C@H](OP(=O)(O)O)[C@@H](OP(=O)(O)O)[C@@H](O)[C@@H](O)[C@@H]1OP(=O)(O)O [Ins(3,4,5,6)P4] |  | two to four orders of magnitude | 
21 | 3.8e-05 M | 2.5e-05 M | O=P(O)(O)O[C@@H]1[C@@H](O)[C@H](O)[C@H](O)[C@H](O)[C@H]1OP(=O)(O)O [Ins(4,5)P2] |  | two to four orders of magnitude | IC50 [4]: 14 µM; IC50 relative to that of Ins(1,4,5)P3 [4]: three orders or magnitude higher
22 | 1.6e-05 M | 3.2e-05 M | PIP2 |  | two to four orders of magnitude | IC50 [4]: 14 µM; IC50 relative to that of Ins(1,4,5)P3 [4]: three orders or magnitude higher

From patent US5798447A, “Antibodies specific for D-myo-inositol 1, 4, 5-trisphosphate and the enzyme-linked immunosorbent assay of D-myo-inositol 1, 4, 5-trisphosphate” (The Board of Governors for Higher Education State of Rhode …, priority 1996, dated 1998)
